Measured values taken from US8865623B2, “Herbicidally active cyclic diones and derivatives thereof, processes for their preparation, compositions, and method of controlling weeds” (Syngenta Limited, priority 2009, dated 2014).

Tests used:
Type in all cases: in vivo
[1] = test system: Alopecurus myosuroides (ALOMY); test: Pre-emergence herbicidal activity, glasshouse pot test; conditions: Alopecurus myosuroides, 312 h; Rate 250 g/ha; pre-emergence spray; evaluated after 13 days; read-out: Pre-emergence activity ALOMY (100=total damage to plant; 0=no damage to plant)
Outline: (§1)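 Pot-grown plants in standard soil received a spray one day post-sowing (pre-emergence) or after eight days' growth (post-emergence). Scoring took place 13 days later on a 0–100 scale, 100 meaning total damage.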

Avena fatua (AVEFA) [2] = test: as above; conditions: Avena fatua, 312 h; Rate 250 g/ha; pre-emergence spray; evaluated after 13 days; read-out: Pre-emergence activity AVEFA (100=total damage to plant; 0=no damage to plant)
Outline: as §1

[3] = test system: Echinochloa crus-galli (ECHCG); test: as above; conditions: Echinochloa crus-galli, 312 h; Rate 250 g/ha; pre-emergence spray; evaluated after 13 days; read-out: Pre-emergence activity ECHCG (100=total damage to plant; 0=no damage to plant)
Outline: as §1

Lolium perenne (LOLPE) [4] = test: as above; conditions: Lolium perenne, 312 h; Rate 250 g/ha; pre-emergence spray; evaluated after 13 days; read-out: Pre-emergence activity LOLPE (100=total damage to plant; 0=no damage to plant)
Outline: as §1

[5] = test system: Alopecurus myosuroides (ALOMY); test: Post-emergence herbicidal activity, glasshouse pot test; conditions: Alopecurus myosuroides, 312 h, rate 250 g/ha, evaluated after 13 days, glasshouse, read-out: Post-emergence activity ALOMY (100=total damage to plant; 0=no damage to plant)
Outline: as §1

Avena fatua (AVEFA) [6] = test: as above; conditions: Avena fatua, 312 h, rate 250 g/ha, evaluated after 13 days, glasshouse, read-out: Post-emergence activity AVEFA (100=total damage to plant; 0=no damage to plant)
Outline: as §1

[7] = test system: Echinochloa crus-galli (ECHCG); test: as above; conditions: Echinochloa crus-galli, 312 h, rate 250 g/ha, evaluated after 13 days, glasshouse, read-out: Post-emergence activity ECHCG (100=total damage to plant; 0=no damage to plant)
Outline: as §1

Lolium perenne (LOLPE) [8] = test: as above; conditions: Lolium perenne, 312 h, rate 250 g/ha, evaluated after 13 days, glasshouse, read-out: Post-emergence activity LOLPE (100=total damage to plant; 0=no damage to plant)
Outline: as §1

Structure (SMILES)	pest or weed control at 250 g/ha [1] [%]	pest or weed control at 250 g/ha (Avena fatua (AVEFA) [2]) [%]	pest or weed control at 250 g/ha [3] [%]	pest or weed control at 250 g/ha (Lolium perenne (LOLPE) [4]) [%]	pest or weed control at 250 g/ha [5] [%]	pest or weed control at 250 g/ha (Avena fatua (AVEFA) [6]) [%]	pest or weed control at 250 g/ha [7] [%]	pest or weed control at 250 g/ha (Lolium perenne (LOLPE) [8]) [%]
CCc1ccc(Oc2cc(Cl)c(Cl)nn2)cc1C1=C(O)C(C)(C)OC(C)(C)C1=O [Example A-129]	10	0	30	10	10	10	30	10
CCc1ccc(Oc2cc(Cl)nc(C)n2)cc1C1=C(O)C(C)(C)OC(C)(C)C1=O [Example A-130]	0	0	30	0	10	0	40	10
CCc1ccc(Oc2ccc3nc(Cl)cn3n2)cc1C1=C(O)C(C)(C)OC(C)(C)C1=O [Example A-131]	30	40	90	60	70	80	90	70
CCc1ccc(Oc2ncc(C)nc2C)cc1C1=C(O)C(C)(C)OC(C)(C)C1=O [Example A-135]	10	0	30	10	30	20	50	30
CCc1ccc(Oc2nc(F)c(Cl)cc2Cl)cc1C1=C(O)C(C)(C)OC(C)(C)C1=O [Example A-140]	20	0	50	50	70	70	100	70
CCc1ccc(Oc2nc(Cl)c(Cl)cc2Cl)cc1C1=C(O)C(C)(C)OC(C)(C)C1=O [Example A-142]	20	0	40	10	20	20	70	10
CCc1ccc(Oc2ncc(Cl)cc2C(F)(F)F)cc1C1=C(O)C(C)(C)OC(C)(C)C1=O [Example A-143]	60	40	100	70	100	100	100	100
CCc1ccc(Oc2cc(Cl)cc(Cl)n2)cc1C1=C(O)C(C)(C)OC(C)(C)C1=O [Example A-145]	10	0	20	10	20	20	70	20
CCc1ccc(Oc2cc(C(F)(F)F)cc(Cl)n2)cc1C1=C(O)C(C)(C)OC(C)(C)C1=O [Example A-146]	10	0	10	0	30	30	70	20
CCc1ccc(Oc2ccc(Cl)cn2)cc1C1=C(O)C(C)(C)OC(C)(C)C1=O [Example A-147]	50	20	100	80	80	70	100	90
CCc1ccc(Oc2ncc(C(F)(F)F)cc2C(F)(F)F)cc1C1=C(O)C(C)(C)OC(C)(C)C1=O [Example A-148]	50	90	90	100	90	100	100	90
CCc1ccc(Oc2ccc([N+](=O)[O-])cn2)cc1C1=C(O)C(C)(C)OC(C)(C)C1=O [Example A-149]	10	10	60	20	10	30	50	30
CCc1ccc(Oc2ccc(C#N)cn2)cc1C1=C(O)C(C)(C)OC(C)(C)C1=O [Example A-150]	10	10	80	70	60	70	100	40
CCc1ccc(Oc2nc(F)c(F)c(Cl)c2F)cc1C1=C(O)C(C)(C)OC(C)(C)C1=O [Example A-151]	30	20	70	50	20	20	70	30
CCc1ccc(Oc2cc(C(F)(F)F)ccn2)cc1C1=C(O)C(C)(C)OC(C)(C)C1=O [Example A-153]	50	20	100	60	70	80	90	30
CCc1ccc(Oc2ncccc2C(F)(F)F)cc1C1=C(O)C(C)(C)OC(C)(C)C1=O [Example A-154]	0	0	20	10	20	10	60	20
CCc1ccc(Oc2cc(F)cc(F)n2)cc1C1=C(O)C(C)(C)OC(C)(C)C1=O [Example A-156]	20	0	60	20	30	20	50	20
CCc1ccc(Oc2ncc(I)cc2Cl)cc1C1=C(O)C(C)(C)OC(C)(C)C1=O [Example A-157]	40	30	80	50	90	100	100	90
CCc1ccc(Oc2ccc3cc(Cl)ccc3n2)cc1C1=C(O)C(C)(C)OC(C)(C)C1=O [Example A-159]	30	40	90	100	80	80	100	100
CCc1ccc(Oc2cnc3ccccc3n2)cc1C1=C(O)C(C)(C)OC(C)(C)C1=O [Example A-161]	70	50	100	90	100	70	100	90
CCc1ccc(Oc2ncc(Cl)cc2[N+](=O)[O-])cc1C1=C(O)C(C)(C)OC(C)(C)C1=O [Example A-162]	30	10	60	50	80	50	90	70
